We go through 15 compounds from patent publication US20230242513A1, “NOVEL HETEROARYL-SUBSTITUTED PYRAZINE DERIVATIVES AS PESTICIDES” (Bayer Animal Health GmbH, priority 2020, published 2023).

What all share (type): in vivo
The test system of test [1] is Diabrotica balteata (banded cucumber beetle larvae). Nature of the test: Diabrotica balteata spray test. Conditions: 168 h, wheat seeds, after 7 days, read-out: efficacy (seedlings grown up like untreated, uninfected control); for pest or weed control at 32 µg/disc, 100 g/ha: application rate 100 g/ha (=32 μg/well). The procedure: Diabrotica balteata—Spray Test
(§1) Solvent: 78.0 parts by weight of acetone • • 1.5 parts by weight of dimethylformamide
(§2) Emulsifier: alkylarylpolyglycol ether
(§3) To produce a suitable preparation of active compound, 1 part by weight of active compound is mixed with the stated amount of solvent, and the concentrate is diluted with water, containing an emulsifier concentration of 1000 ppm, to the desired concentration. Further test concentrations are prepared by dilution with emulsifier containing water.
Soaked wheat seeds (Triticum aestivum) are placed in a multiple well plate filled with agar and some water and are incubated for 1 day to germinate (5 seeds per well). The germinated wheat seeds are sprayed with a test solution containing the desired concentration of the active ingredient. Afterwards each unit is infected with 10-20 larvae of the banded cucumber beetle (Diabrotica balteata).
After 7 days efficacy in % is determined. 100% means all the seedlings have grown up like in the untreated, uninfected control; 0% means none of the seedlings have grown.

For test [2], the system named is Spodoptera frugiperda (fall armyworm larvae). In words: Spodoptera frugiperda spray test. Conditions: in Zea mays, 168 h. How it is done:
Spodoptera frugiperda—Spray Test
Solvent: 78.0 parts by weight acetone • 1.5 parts by weight dimethylformamide
as §2
(§4) To produce a suitable preparation of active compound, 1 part by weight of active compound is mixed with the stated amount of solvents and is diluted with water, containing an emulsifier concentration of 1000 ppm, to the desired concentration. Further test concentrations are prepared by dilution with emulsifier containing water.
Maize (Zea mays) leaf sections are sprayed with a preparation of the active ingredient of the desired concentration. Once dry, the leaf sections are infested with fall armyworm larvae (Spodoptera frugiperda).
After 7 days mortality in % is determined. 100% means all caterpillars have been killed and 0% means none of the caterpillars have been killed.

Test [3] relates to Nilaparvata lugens (brown planthopper). In words: Nilaparvata lugens spray test. Conditions: 96 h, application rate 500 g/ha, rice plants, after 4 days. The procedure: Nilaparvata lugens—Spray Test
as §1, §2, §4
Rice plants (Oryza sativa) are sprayed with a preparation of the active ingredient of the desired concentration and the plants are infested with the brown planthopper (Nilaparvata lugens).
After 4 days mortality in % is determined. 100% means all planthoppers have been killed and 0% means none of the planthoppers have been killed.

In test [4] the test system is Nezara viridula (southern green stink bug larvae). In words: Nezara viridula spray test. The note with it: 96 h, application rate 500 g/ha, barley plants, after 4 days. How it is done: Nezara viridula—Spray Test
as §1, §2, §3
Barley plants (Hordeum vulgare) are sprayed with a test solution containing the desired concentration of the active ingredient and are infested with larvae of the southern green stink bug (Nezara viridula).
After 4 days mortality in % is determined. 100% means all the stink bugs have been killed; 0% means none of the stink bugs have been killed.

Test [5] deals with Rhipicephalus (Boophilus) microplus larvae (strain Parkhurst, resistant against synthetic pyrethroids). Nature of the test: Rhipicephalus (Boophilus) microplus in-vitro contact test, larval cattle tick. The note with it: application rate 5 μg/cm^2 (=500 g/ha); after 48 hours. How it is done: Rhipicephalus (Boophilus) microplus—In-Vitro Contact Tests Larval Cattle Tick (Strain Parkhurst, Resistant Against Synthetic Pyrethroids)
9 mg compound is solved in 1 mL acetone and diluted with acetone to the desired concentration. 250 μL of the test solution is filled in 25 mL glass test tubes and homogeneously distributed on the inner walls by rotation and tilting on a shaking device (2 h at 30 rpm). With a compound concentration of 900 ppm, an inner surface of 44.7 cm^2 and a homogeneous distribution, a dose of […] is achieved.
After the solvent has evaporated, each test tube is filled with 20-50 cattle tick larvae (Rhipicephalus microplus), closed with a perforated lid and incubated in a horizontal position at 85% relative humidity and 27° C. in an incubator. After 48 hours efficacy is determined. The larvae are patted on the ground of the tubes and negative geotactic behavior is recorded.
An efficacy of 100% means all larvae are dead or moribund; 0% means no larvae are dead or moribund.

Test [6] relates to Ctenocephalides felis (adult cat fleas). In words: Ctenocephalides felis in-vitro contact test, adult cat flea. Conditions: after 48 hours. How it is done:
Ctenocephalides felis—In-Vitro Contact Tests Adult Cat Flea
(§5) 9 mg compound is solved in 1 mL acetone and diluted with acetone to the desired concentration. 250 μL of the test solution is filled in 25 mL glass test tubes and homogeneously distributed on the inner walls by rotation and tilting on a shaking device (2 h at 30 rpm). With a compound concentration of 900 ppm, an inner surface of 44.7 cm^2 and a homogeneous distribution, a dose of 5 μg/cm^2 is achieved.
After the solvent has evaporated, each test tube is filled with 5-10 adult cat fleas (Ctenocephalides felis), closed with a perforated lid and incubated in a lying position at room temperature and relative humidity. After 48 hours efficacy is determined. The fleas are patted on the ground of the tubes and are incubated on a heating plate at 45-50° C. for at most 5 minutes. Immotile or uncoordinated moving fleas, which are not able to escape the heat by climbing upwards, are marked as dead or moribund.
An efficacy of 100% means all fleas are dead or moribund; 0% means no fleas are dead or moribund.

The subject of test [7] is Rhipicephalus sanguineus (adult brown dog ticks). In words: Rhipicephalus sanguineus in-vitro contact test, adult brown dog ticks. Conditions: application rate 1 μg/cm^2 (=100 g/ha); after 48 hours. The procedure:
Rhipicephalus sanguineus—In-Vitro Contact Tests with Adult Brown Dog Ticks
as §5
After the solvent has evaporated, each test tube is filled with 5-10 adult brown dog ticks (Rhipicephalus sanguineus), closed with a perforated lid and incubated in a lying position at room temperature and relative humidity. After 48 hours efficacy is determined. The ticks are patted on the ground of the tubes and are incubated on a heating plate at 45-50° C. for at most 5 minutes. Immotile or uncoordinated moving ticks, which are not able to escape the heat by climbing upwards, are marked as dead or moribund.
An efficacy of 100% means all ticks are dead or moribund; 0% means no ticks are dead or moribund.

As to `Cc1ncn(-c2nccnc2C(C)NC(=O)c2cc(Br)cc(Br)c2)n1` (racemic) [Example I-2, 3,5-Dibromo-N-{(rac)-1-[3-(3-methyl-1H-1,2,4-triazol-1-yl)pyrazin-2-yl]ethyl}benzamide], the pest or weed control at 32 µg/disc, 100 g/ha in test [1] worked out at 100%.

For `Cc1ncn(-c2nccnc2C(C)NC(=O)c2cc(C(F)(F)F)cc(C(F)(F)F)c2)n1` (racemic) [Example I-3, (rac)-N-{1-[3-(3-Methyl-1H-1,2,4-triazol-1-yl)pyrazin-2-yl]ethyl}-3,5-bis(trifluoromethyl)benzamide], in test [2], the mortality (commonly the share of the test organisms that died) at 100 g/ha turned out to be 100%. Further, in test [3], the mortality at 500 g/ha was determined as 90%. For `Cc1ncn(-c2nccnc2C(C)NC(=O)c2cc(Cl)cc(S(C)(=O)=O)c2)n1` (racemic) [Example I-4, (rac)-3-Chloro-5-(methanesulfonyl)-N-{1-[3-(3-methyl-1H-1,2,4-triazol-1-yl)pyrazin-2-yl]ethyl}benzamide], the pest or weed control at 32 µg/disc, 100 g/ha in test [1] is 100%. Moreover, the mortality at 500 g/ha in test [4] was found to be 70%. The compound `CC(NC(=O)c1cc(C(F)(F)F)cc(C(F)(F)F)c1)c1nccnc1-n1cncn1` (racemic) [Example I-5, (rac)-N-(1-[3-(1H-1,2,4-Triazol-1-yl)pyrazin-2-yl]ethyl)-3,5-bis(trifluoromethyl)benzamide] registered a mortality at 20 g/ha in test [2] of 83%. Moreover, the pest or weed control at 32 µg/disc, 100 g/ha in test [1] worked out at 100%. Also, the mortality at 500 g/ha in test [3] is 100%. `CC(NC(=O)c1cc(Cl)cc(S(C)(=O)=O)c1)c1nccnc1-n1cncn1` (racemic) [Example I-6, (rac)-3-Chloro-5-(methanesulfonyl)-N-{1-[3-(1H-1,2,4-triazol-1-yl)pyrazin-2-yl]ethyl}benzamide]: in test [1], the pest or weed control at 32 µg/disc, 100 g/ha is 100%. Also, the mortality at 500 g/ha in test [4] was 90%; in test [3], 100%. On to `CC(NC(=O)c1cc(Br)cc(Br)c1)c1nccnc1-n1cncn1` (racemic) [Example I-7, (rac)-3,5-Dibromo-N-{1-[3-(1H-1,2,4-triazol-1-yl)pyrazin-2-yl]ethyl}benzamide], for which the pest or weed control at 32 µg/disc, 100 g/ha in test [1] is 100%.

Regarding `Cc1ncn(-c2nccnc2C(C)NC(=O)c2cc(Cl)cc(OC(F)(F)F)c2)n1` (racemic) [Example I-9, (rac)-3-Chloro-N-{1-[3-(3-methyl-1H-1,2,4-triazol-1-yl)pyrazin-2-yl]ethyl}-5-(trifluoromethoxy)benzamide], the mortality at 100 g/ha in test [2] is 100%. Also, in test [1], the pest or weed control at 32 µg/disc, 100 g/ha stood at 100%.

Take `CC(NC(=O)c1cc(C(F)(F)F)cc(C(F)(F)F)c1)c1nccnc1-c1cn(C)nn1` (racemic) [Example I-10, (rac)-N-{1-[3-(1-Methyl-1H-1,2,3-triazol-4-yl)pyrazin-2-yl]ethyl}-3,5-bis(trifluoromethyl)benz amide]: the “efficacy (larvae dead or moribund)” value in test [5] was found to be 100%. In test [1], the pest or weed control at 32 µg/disc, 100 g/ha was found to be 100%. Regarding `CC(NC(=O)c1cc(Cl)cc(OC(F)(F)F)c1)c1nccnc1-c1cn(C)nn1` (racemic) [Example I-11, (rac)-3-Chloro-N-{1-[3-(1-methyl-1H-1,2,3-triazol-4-yl)pyrazin-2-yl]ethyl}-5-(trifluoromethoxy)benzamide], in test [1], the pest or weed control at 32 µg/disc, 100 g/ha was found to be 100%.

In test [2], `CC(NC(=O)c1cc(C(F)(F)F)cc(C(F)(F)F)c1)c1nccnc1-c1cn(-c2ccn(C)n2)nn1` (racemic) [Example I-12, (rac)-N-1-{3-[1-(1-Methyl-1H-pyrazol-3-yl)-1H-1,2,3-triazol-4-yl]pyrazin-2-yl}ethyl]-3,5-bis(trifluoromethyl)benzamide] had a mortality at 100 g/ha of 100%. Further, in test [5], the “efficacy (larvae dead or moribund)” value was determined as 90%. `CC(NC(=O)c1cc(Br)cc(Br)c1)c1nccnc1-c1cn(C)nn1` (racemic) [Example I-15, (rac)-3,5-Dibromo-N-{1-[3-(1-methyl-1H-1,2,3-triazol-4-yl)pyrazin-2-yl]ethyl}benzamide]: in test [1], the pest or weed control at 32 µg/disc, 100 g/ha was 100%. `CCN(C)C(=O)c1ncn(-c2nccnc2C(C)NC(=O)c2cc(C(F)(F)F)cc(C(F)(F)F)c2)n1` (racemic) [Example I-21, (rac)-1-(3-{1-[3,5-Bis(trifluoromethyl)benzamido]ethyl}pyrazin-2-yl)-N-ethyl-N-methyl-1H-1,2,4-triazole-3-carboxamide]: in test [5], the “efficacy (larvae dead or moribund)” value is 100%. Moreover, the “efficacy (fleas dead or moribund)” value in test [6] (application rate 1 μg/cm^2 (=100 g/ha)) came out at 80%. Also, the “efficacy (ticks dead or moribund)” value in test [7] stood at 80%. `CCN(C)C(=O)c1ncn(-c2nccnc2C(C)NC(=O)c2cc(Cl)cc(S(C)(=O)=O)c2)n1` (racemic) [Example I-25, (rac)-1-(3-{1-[3-Chloro-5-(methanesulfonyl)benzamido]ethyl}pyrazin-2-yl)-N-ethyl-N-methyl-1H-1,2,4-triazole-3-carboxamide] returned a mortality at 100 g/ha in test [2] of 100%. Regarding `CC(NC(=O)c1cc(C(F)(F)F)cc(C(F)(F)F)c1)c1nccnc1-n1cnc(C#N)n1` (racemic) [Example I-27, (rac)-N-{1-[3-(3-Cyano-1H-1,2,4-triazol-1-yl)pyrazin-2-yl]ethyl}-3,5-bis(trifluoromethyl)benzamide], the “efficacy (larvae dead or moribund)” value in test [5] amounted to 100%.

With `CCOC(=O)Cn1cc(-c2nccnc2C(C)NC(=O)c2cc(C(F)(F)F)cc(C(F)(F)F)c2)nn1` (racemic) [Example I-28, (rac)-Ethyl [4-(3-{1-[3,5-bis(trifluoromethyl)benzamido]ethyl}pyrazin-2-yl)-1H-1,2,3-triazol-1-yl]acetate], the “efficacy (larvae dead or moribund)” value in test [5] was 100%. Besides, the “efficacy (fleas dead or moribund)” value in test [6] (application rate 5 μg/cm^2 (=500 g/ha)) was 100%. Besides, in test [1] (application rate 500 g/ha (=160 μg/well)), the pest or weed control at 160 µg/disc, 500 g/ha was 100%.
